Measured values: ChEMBL document CHEMBL1135713, “Antitumor benzothiazoles. 16. Synthesis and pharmaceutical properties of antitumor 2-(4-aminophenyl)benzothiazole amino acid prodrugs” (J Med Chem, 2002)

Columns and labels:
[1] = Delta logP; type: ADME; conditions: octanol/water
[2] = log P value in cyclohexane:buffer at pH 7.4; type: physicochemical
[3] = The compound was tested for its solubility at a pH of 9.6; type: ADME; conditions: pH 9.6; read-out: S
[4] = The compound was tested for its solubility at a pH of 5.0; type: ADME; conditions: pH 5; read-out: S
[5] = The compound was tested for its solubility at a pH of 6.3; type: ADME; conditions: pH 6.3; read-out: S
[6] = The compound was tested for its solubility at a pH of 8.5; type: ADME; conditions: pH 8.5; read-out: S
[7] = The compound was tested for its solubility at a pH of 10.5; type: ADME; conditions: pH 10.5; read-out: S
[8] = The compound was tested for its solubility at a pH of 7.4; type: ADME; conditions: pH 7.4; read-out: S

| delta logP [1] | logD [2] | solubility [3] | solubility [4] | solubility [5] | solubility [6] | solubility [7] | solubility [8] | Compound |
| --- | --- | --- | --- | --- | --- | --- | --- | --- |
| 1.45 | 2.51 | – | – | – | – | – | – | Cc1cc(-c2nc3ccccc3s2)ccc1N |
| – | – | 0.02 mg/mL | > 53.2 mg/mL | 7 mg/mL | 0.075 mg/mL | 0.01 mg/mL | 0.39 mg/mL | Cc1cc(-c2nc3cc(F)ccc3s2)ccc1NC(=O)[C@@H](N)CCCCN.Cl.Cl |
